Structures can show the parent of a compound that is named as a salt.
Test system: α-synuclein aggregate in neurospheroid prepared from human iPS cells with a mutation in PLA2G6 gene
Assay: Test 2: suppressing the accumulation of α-synuclein aggregate with neurospheroid
Format: cell-based
Conditions: 120 h, DMSO = 100%, compound added day 4, measured day 9 after induction of differentiation; for activity at 0.1 µM: 100 nM, read-out: Amount of aggregate (%) 100 nM; for activity at 1 µM: 1000 nM, read-out: Amount of aggregate (%) 1000 nM
Procedure: Test 2: Evaluation of Suppressing the Accumulation of α-Synuclein Aggregate with Neurospheroid Prepared from Human iPS Cells with a Mutation in PLA2G6 Gene
(1) Induction of Differentiation from Human iPS Cell to Neural Cell
Neural stem cells were induced from PLA2G6 gene mutant iPS cells with PSC Neuronal Induction Medium (Thermo Fisher Scientific Inc., cat #A1647801). Neurospheroid was prepared from the induced neural stem cells by three-dimensional culture system, and preserved with BrainPhys Neuronal Medium (STEMCELL Technologies, cat #ST-05793) comprising NeuroCult SM1 Neuronal Supplement, N2 Supplement-A, 20 ng/mL BDNF, 20 ng/mL GDNF, 1 mM dibutyryl cAMP, and 200 nM ascorbic acid. Half of the culture medium was replaced on day 2 and day 4 after the induction of differentiation.
The test compound was diluted with the culture medium so as to be twice the final concentration, and an equal volume of the twice-concentrated solution was added to each well when half of the culture medium was replaced on day 4 after induction of differentiation.
(2) Evaluation of the Amount of α-Synuclein Aggregate
From the neurospheroid 9 days after the induction of differentiation, proteins were extracted with a TBS solution containing 1% TritionX-100, and the extracted proteins were subjected to a protein analysis with Simple Western system (Protein Simple, Inc., cat #SM-W008) using an α-synuclein antibody (Thermo Fisher Scientific Inc., cat #AHB0261) to measure the amount of the α-synuclein aggregate.
Assuming that the amount of the aggregate in the neurospheroid added with a DMSO solution is 100%, the amount of the aggregate in the neurospheroid added with each test compound was evaluated.

SMILES | activity at 0.1 µM [%] | activity at 1 µM [%]
CC1(C(=O)N2CCC(c3cnccc3C(F)(F)F)CC2)COC1 [Example 3, (3-methyloxetan-3-yl){4-[4-(trifluoromethyl)pyridin-3-yl]piperidin-1-yl}methanone] | 6 | 10
CC1(C(=O)N2CCC(c3cccnc3C(F)(F)F)CC2)COC1 [Example 4, (3-methyloxetan-3-yl){4-[2-(trifluoromethyl)pyridin-3-yl]piperidin-1-yl}methanone] | 30 | 29
CCC1(C(=O)N2CCC(c3cncc(C(F)(F)F)c3)CC2)COC1 [Example 6] | 97 | 81
CCC1(C(=O)N2CCC(c3cccnc3C(F)(F)F)CC2)COC1 [Example 7] | 23 | 52
CCC1(C(=O)N2CCC(c3cnccc3C(F)(F)F)CC2)COC1 [Example 8] | 7 | 13
CCC1(C(=O)N2CCC(c3ccc(C(F)(F)F)cn3)CC2)COC1 [Example 10] | 25 | 29
CC1(C(=O)N2CCCC(c3ccc(C(F)(F)F)nc3)C2)COC1 (centres unmarked) [Example 11] | 3 | 97
CCC1(C(=O)N2CCCC(c3ccc(C(F)(F)F)nc3)C2)COC1 (centres unmarked) [Example 12] | 35 | 12
CC1(C(=O)N2CC(c3ccc(C(F)(F)F)nc3)C2)COC1 [Example 13] | 11 | 7
CC1(C(=O)N2CCC(c3ccc(C(F)(F)F)nc3)C2)COC1 (centres unmarked) [Example 14] | 37 | 22
CCC1(C(=O)N2CCC(c3ccc(C(F)(F)F)nc3)C2)COC1 (centres unmarked) [Example 15] | 23 | 48
C[C@H]1C[C@@H](c2ccc(C(F)(F)F)nc2)CCN1C(=O)C1(C)COC1 [Example 16] | 26 | 106
C[C@H]1C[C@H](c2ccc(C(F)(F)F)nc2)CCN1C(=O)C1(C)COC1 [Example 17] | 28 | 40
CCC1(C(=O)N2CC[C@H](c3ccc(C(F)(F)F)nc3)C[C@@H]2C)COC1 [Example 18] | 81 | 80
CCC1(C(=O)N2CC[C@@H](c3ccc(C(F)(F)F)nc3)C[C@@H]2C)COC1 [Example 19] | 5 | 18
CC1(C(=O)N2CCC(O)(c3ccc(C(F)(F)F)nc3)CC2)COC1 [Example 20] | 2 | 91
CC1(C(=O)N2CCC(F)(c3ccc(C(F)(F)F)nc3)CC2)COC1 [Example 21] | 73 | 77
O=C(C1CCOCC1)N1CCC(c2ccc(C(F)(F)F)nc2)CC1 [Example 22] | 24 | 50
CC1(C(=O)N2CCC(c3ccc(C(F)(F)F)nc3)CC2)CCOCC1 [Example 23] | 23 | 49
O=C(C1CCOC1)N1CCC(c2ccc(C(F)(F)F)nc2)CC1 (centres unmarked) [Example 24] | 46 | 39
O=C([C@H]1CCOC1)N1CCC(c2ccc(C(F)(F)F)nc2)CC1 [Example 25] | 80 | 71
O=C([C@@H]1CCOC1)N1CCC(c2ccc(C(F)(F)F)nc2)CC1 [Example 26] | 26 | 33
O=C([C@H]1CCCO1)N1CCC(c2ccc(C(F)(F)F)nc2)CC1 [Example 27] | 5 | 29
O=C([C@@H]1CCCO1)N1CCC(c2ccc(C(F)(F)F)nc2)CC1 [Example 28] | 23 | 63
CCC1(C(=O)N2CCC(c3cnc(C(F)(F)F)c(F)c3)CC2)COC1 [Example 30] | 16 | 56
Cc1cc(C(F)(F)F)ncc1C1CCN(C(=O)C2(C)COC2)CC1 [Example 31, (3-methyloxetan-3-yl){4-[4-methyl-6-(trifluoromethyl)pyridin-3-yl]piperidin-1-yl}methanone] | 14 | 1
CC1(C(=O)N2CCC(c3ccc(C(F)(F)F)nc3)CC2)CNC1 [Example 33, (3-Methylazetidin-3-yl){4-[6-(trifluoromethyl)pyridin-3-yl]piperidin-1-yl}methanone] | 22 | 22
CC1(C(=O)N2CCC(c3cccnc3C(F)(F)F)CC2)CNC1 [Example 34] | 43 | 127

SMILES | activity at 0.1 µM [%] | activity at 1 µM [%]
CC1(C(=O)N2CCC(c3cncc(C(F)(F)F)c3)CC2)CNC1 [Example 36] | 78 | 81
CC1(C(=O)N2CCC(c3ccc(C(F)(F)F)cn3)CC2)CNC1 [Example 37] | 13 | 106
CC1(C(=O)N2CCCC(c3ccc(C(F)(F)F)nc3)C2)CNC1 (centres unmarked) [Example 38] | 6 | 4
CC1(C(=O)N2CCC(c3ccc(C(F)(F)F)nc3)C2)CNC1 (centres unmarked) [Example 39] | 92 | 70
O=C(C1CCNCC1)N1CCC(c2ccc(C(F)(F)F)nc2)CC1 [Example 40] | 29 | 8
CN1CC(C)(C(=O)N2CCC(c3ccc(C(F)(F)F)nc3)CC2)C1 [Example 41, (1,3-Dimethylazetidin-3-yl){4-[6-(trifluoromethyl)pyridin-3-yl]piperidin-1-yl}methanone hydrochloride] | 57 | 70
CN1CC(C)(C(=O)N2CCC(c3cnccc3C(F)(F)F)CC2)C1 [Example 43, (1,3-dimethylazetidin-3-yl){4-[4-(trifluoromethyl)pyridin-3-yl]piperidin-1-yl}methanone] | 9 | 11
CN1CC(C)(C(=O)N2CCCC(c3ccc(C(F)(F)F)nc3)C2)C1 (centres unmarked) [Example 46] | 38 | 25
CN1CC(C)(C(=O)N2CCC(c3ccc(C(F)(F)F)nc3)C2)C1 (centres unmarked) [Example 47] | 1 | 55
CN1CCC(C(=O)N2CCC(c3ccc(C(F)(F)F)nc3)CC2)CC1 [Example 48] | 16 | 21
O=C(N1CCOCC1)N1CCC(c2ccc(C(F)(F)F)nc2)CC1 [Example 49, (Morpholin-4-yl){4-[6-(trifluoromethyl)pyridin-3-yl]piperidin-1-yl}methanone] | 13 | 18
O=C(C1COC1)N1CCC(c2ccc(C(F)(F)F)nc2)CC1 [Example 50] | 86 | 101
CC1(C)CC(C(=O)N2CCC(c3ccc(C(F)(F)F)nc3)CC2)CCO1 (centres unmarked) [Example 51] | 100 | 87
CC1(C(=O)N2CCC(c3ccnc(C(F)(F)F)c3)CC2)COC1 [Example 52] | 36 | 100
CC1(C(=O)N2CCC(c3ccncc3C(F)(F)F)CC2)COC1 [Example 53] | 106 | 82
CC1(C(=O)N2CCC(c3ccc(Cl)nc3)CC2)COC1 [Example 54] | 63 | 35
Cc1ccc(C2CCN(C(=O)C3(C)COC3)CC2)cn1 [Example 55] | 75 | 45
CC(C)c1ccc(C2CCN(C(=O)C3(C)COC3)CC2)cn1 [Example 56] | 30 | 71
CC1(C(=O)N2CCC(c3ccc(C(F)(F)F)nn3)CC2)COC1 [Example 57] | 88 | 50
CC1(C(=O)N2CCC(c3ccnc(C(F)(F)F)n3)CC2)COC1 [Example 58] | 88 | 116
CC1(C(=O)N2CCC(c3cnc(C(F)(F)F)cn3)CC2)COC1 [Example 59] | 100 | 87
O=C(N1CCCOCC1)N1CCC(c2ccc(C(F)(F)F)nc2)CC1 [Example 60, (1,4-Oxazepan-4-yl){4-[6-(trifluoromethyl)pyridin-3-yl]piperidin-1-yl}methanone] | 67 | 96
CC1(C)CN(C(=O)N2CCC(c3ccc(C(F)(F)F)nc3)CC2)CCO1 [Example 61] | 72 | 49
O=C(N1CCC(c2ccc(C(F)(F)F)nc2)CC1)N1C[C@H]2CC[C@@H](C1)O2 [Example 62] | 81 | 51
CC1(C)COCCN1C(=O)N1CCC(c2ccc(C(F)(F)F)nc2)CC1 [Example 63] | 68 | 58
CCN1CC(C)(C(=O)N2CCC(c3ccc(C(F)(F)F)nc3)CC2)C1 [Example 64] | 109 | 86
CCCN1CC(C)(C(=O)N2CCC(c3ccc(C(F)(F)F)nc3)CC2)C1 [Example 65] | 57 | 80
